Results reported in the CheMixHub viscosity set.

Experiment: xn = mol fraction of the nth substance listed

CCCCCCC + CCO
Details	viscosity [mPa·s]
293.15 K, 101 kPa, x1 = 0.1005	0.9853
293.15 K, 101 kPa, x1 = 0.202	0.8256
293.15 K, 101 kPa, x1 = 0.3022	0.7149
293.15 K, 101 kPa, x1 = 0.4016	0.6285
293.15 K, 101 kPa, x1 = 0.5079	0.567
293.15 K, 101 kPa, x1 = 0.5967	0.516
293.15 K, 101 kPa, x1 = 0.7041	0.4658
293.15 K, 101 kPa, x1 = 0.8008	0.4428
293.15 K, 101 kPa, x1 = 0.8935	0.423
298.15 K, 100 kPa, x1 = 0.0472	1.002
298.15 K, 100 kPa, x1 = 0.1004	0.9149
298.15 K, 100 kPa, x1 = 0.199	0.7776
298.15 K, 100 kPa, x1 = 0.3003	0.6663
298.15 K, 100 kPa, x1 = 0.3994	0.5825
298.15 K, 100 kPa, x1 = 0.507	0.5154
298.15 K, 100 kPa, x1 = 0.5988	0.4742
298.15 K, 100 kPa, x1 = 0.6751	0.449
298.15 K, 100 kPa, x1 = 0.7394	0.4327
298.15 K, 100 kPa, x1 = 0.8085	0.4191
298.15 K, 100 kPa, x1 = 0.9003	0.4048
298.15 K, 101 kPa, x1 = 0.1005	0.9069
298.15 K, 101 kPa, x1 = 0.202	0.7656
298.15 K, 101 kPa, x1 = 0.3022	0.6673
298.15 K, 101 kPa, x1 = 0.4016	0.5856
298.15 K, 101 kPa, x1 = 0.5079	0.5214
298.15 K, 101 kPa, x1 = 0.5967	0.4815
298.15 K, 101 kPa, x1 = 0.7041	0.4422
298.15 K, 101 kPa, x1 = 0.8008	0.4149
298.15 K, 101 kPa, x1 = 0.8935	0.4021
298.15 K, 101.33 kPa, x2 = 0.0831	0.413
298.15 K, 101.33 kPa, x2 = 0.1075	0.394
298.15 K, 101.33 kPa, x2 = 0.1985	0.426
298.15 K, 101.33 kPa, x2 = 0.1999	0.408
298.15 K, 101.33 kPa, x2 = 0.2981	0.444
298.15 K, 101.33 kPa, x2 = 0.3001	0.433
298.15 K, 101.33 kPa, x2 = 0.3932	0.465
298.15 K, 101.33 kPa, x2 = 0.4315	0.487
298.15 K, 101.33 kPa, x2 = 0.5009	0.517
298.15 K, 101.33 kPa, x2 = 0.5079	0.521
298.15 K, 101.33 kPa, x2 = 0.5973	0.584
298.15 K, 101.33 kPa, x2 = 0.6092	0.584
298.15 K, 101.33 kPa, x2 = 0.7009	0.653
298.15 K, 101.33 kPa, x2 = 0.7209	0.69
298.15 K, 101.33 kPa, x2 = 0.8165	0.766
298.15 K, 101.33 kPa, x2 = 0.8241	0.808
298.15 K, 101.33 kPa, x2 = 0.9	0.883
298.15 K, 101.33 kPa, x2 = 0.907	0.922
298.15 K, 101.33 kPa, x2 = 0.9744	1.039
303 K, 101.33 kPa, x2 = 0.3521	0.43
303 K, 101.33 kPa, x2 = 0.5917	0.566
303 K, 101.33 kPa, x2 = 0.7654	0.698
303 K, 101.33 kPa, x2 = 0.8969	0.863
303.15 K, 101 kPa, x1 = 0.1005	0.8186
303.15 K, 101 kPa, x1 = 0.202	0.695
303.15 K, 101 kPa, x1 = 0.3022	0.6164
303.15 K, 101 kPa, x1 = 0.4016	0.5429
303.15 K, 101 kPa, x1 = 0.5079	0.4865
303.15 K, 101 kPa, x1 = 0.5967	0.4506
303.15 K, 101 kPa, x1 = 0.7041	0.4154
303.15 K, 101 kPa, x1 = 0.8008	0.3953
303.15 K, 101 kPa, x1 = 0.8935	0.3827
308.15 K, 101 kPa, x1 = 0.1005	0.7535
308.15 K, 101 kPa, x1 = 0.202	0.6432
308.15 K, 101 kPa, x1 = 0.3022	0.5695
308.15 K, 101 kPa, x1 = 0.4016	0.5077
308.15 K, 101 kPa, x1 = 0.5079	0.4521
308.15 K, 101 kPa, x1 = 0.5967	0.4271
308.15 K, 101 kPa, x1 = 0.7041	0.3957
308.15 K, 101 kPa, x1 = 0.8008	0.3691
308.15 K, 101 kPa, x1 = 0.8935	0.3633
313 K, 101.33 kPa, x2 = 0.3521	0.38
313 K, 101.33 kPa, x2 = 0.5917	0.483
313 K, 101.33 kPa, x2 = 0.7654	0.587
313 K, 101.33 kPa, x2 = 0.8969	0.719
323 K, 101.33 kPa, x2 = 0.3521	0.337
323 K, 101.33 kPa, x2 = 0.5917	0.417
323 K, 101.33 kPa, x2 = 0.7654	0.5
323 K, 101.33 kPa, x2 = 0.8969	0.606

CCCCCO + CCCO
101.33 kPa
Details	viscosity [mPa·s]
293.15 K, x2 = 0.1659	3.671
293.15 K, x2 = 0.3648	3.292
293.15 K, x2 = 0.5097	3.015
293.15 K, x2 = 0.6041	2.854
293.15 K, x2 = 0.7449	2.617
298.15 K, x2 = 0.2007	3.137
298.15 K, x2 = 0.381	2.856
298.15 K, x2 = 0.4603	2.722
298.15 K, x2 = 0.6314	2.464
298.15 K, x2 = 0.7745	2.261
298.15 K, x2 = 0.8626	2.141

ClC(Cl)=C(Cl)Cl + CCCCO
Details	viscosity [mPa·s]
298.15 K, 101.3 kPa, x1 = 0.6759	1.045

O=[N+]([O-])c1ccccc1 + CCCCO
viscosity [mPa·s]
Details	298.15 K	303.15 K	308.15 K	318.15 K
101 kPa, x1 = 0.2	–	–	1.58	1.27
101 kPa, x1 = 0.4	–	–	1.411	1.128
101 kPa, x1 = 0.6	–	–	1.339	1.109
101 kPa, x1 = 0.8	–	–	1.35	1.147
101 kPa, x1 = 0.9	–	–	1.403	1.196
101 kPa, x1 = 0.95	–	–	1.453	1.252
101.33 kPa, x1 = 0.0625	2.311	2.075	–	–
101.33 kPa, x1 = 0.1311	2.142	1.878	–	–
101.33 kPa, x1 = 0.2051	1.954	1.739	–	–
101.33 kPa, x1 = 0.2885	1.814	1.611	–	–
101.33 kPa, x1 = 0.376	1.711	1.559	–	–
101.33 kPa, x1 = 0.4747	1.65	1.423	–	–
101.33 kPa, x1 = 0.5846	1.589	1.446	–	–
101.33 kPa, x1 = 0.7007	1.625	1.476	–	–
101.33 kPa, x1 = 0.8442	1.658	1.509	–	–

CCCCCCC + CO
298.15 K
Details	viscosity [mPa·s]
101 kPa, x1 = 0.01	0.535
101 kPa, x1 = 0.02	0.5317
101 kPa, x1 = 0.03	0.5293
101 kPa, x1 = 0.04	0.5277
101 kPa, x1 = 0.05	0.5257
101 kPa, x1 = 0.06	0.5246
101 kPa, x1 = 0.08	0.5247
101 kPa, x1 = 0.09	0.5214
101.33 kPa, x2 = 0.0171	0.401
101.33 kPa, x2 = 0.0593	0.401
101.33 kPa, x2 = 0.0865	0.404
101.33 kPa, x2 = 0.1148	0.403
101.33 kPa, x2 = 0.9043	0.548
101.33 kPa, x2 = 0.9241	0.549
101.33 kPa, x2 = 0.9474	0.552
101.33 kPa, x2 = 0.9653	0.554
101.33 kPa, x2 = 0.9765	0.553

O=[N+]([O-])c1ccccc1 + CCCO
viscosity [mPa·s], 101.33 kPa
Details	x1 = 0.0517	x1 = 0.1088	x1 = 0.173	x1 = 0.2456	x1 = 0.3276	x1 = 0.4224	x1 = 0.5322	x1 = 0.6613	x1 = 0.8145
298.15 K	1.815	1.725	1.606	1.56	1.511	1.49	1.478	1.494	1.55
303.15 K	1.613	1.558	1.455	1.394	1.402	1.363	1.341	1.352	1.431
